Data as given in ChEMBL document CHEMBL3351953, “Inhibition of the Bacterial Adhesin FimH May Potentially Treat Inflammatory Bowel Diseases (IBD)” (ACS Med Chem Lett, 2014).

Test: Inhibition of Escherichia coli FimH by competitive binding assay

`CNC(=O)c1cccc(-c2ccc(O[C@H]3O[C@H](CO)[C@@H](O)[C@H](C(O)[C@H]4O[C@H](CO)[C@@H](O)[C@H](O)[C@@H]4O)[C@@H]3O)cc2)c1` (stereo partly drawn) showed a Kd of 29 nM.
`O=C1NCC(c2ccc(O[C@H]3O[C@H](CO)[C@@H](O)[C@H](C[C@H]4O[C@H](CO)[C@@H](O)[C@H](O)[C@@H]4O)[C@@H]3O)cc2)=C(O)N1` gave a Kd of 111 nM.
Molecule `CNC(=O)c1ccc(-c2ccc(C)c(O[C@H]3O[C@H](CO)[C@@H](O)[C@H](C[C@H]4O[C@H](CO)[C@@H](O)[C@H](O)[C@@H]4O)[C@@H]3O)c2)cc1` has a Kd of 19 nM.
